Measured values as given in ChEMBL document CHEMBL5608163, “Structure modification of anoplin for fighting resistant bacteria” (Eur J Med Chem, 2024).
Square brackets hold non-standard residues; d marks the D form. Peptide text beside a SMILES is read from it. 2Nal = N[C@@H](Cc1ccc2ccccc2c1)C(=O)O; Cha = N[C@@H](CC1CCCCC1)C(=O)O; Aoc(2) = CCCCCC[C@H](N)C(=O)O; hSer = N[C@@H](CCO)C(=O)O; Nle = CCCC[C@H](N)C(=O)O; Dab = NCC[C@H](N)C(=O)O; Nva = CCC[C@H](N)C(=O)O; Dap = NC[C@H](N)C(=O)O

Columns and labels:
Escherichia coli = test: Antimicrobial activity against Escherichia coli ATCC 25922 assessed as reduction in microbial growth measured after 24 hrs by CLSI based broth microdilution method; assay type: functional
Erythrocyte = test: Hemolytic activity in human erythrocytes incubated for 1 hr by ELISA reader analysis; assay type: toxicity, cell-based

| SMILES | MIC (Escherichia coli) | HC10 (Erythrocyte) |
| --- | --- | --- |
| CC[C@H](C)[C@H](NC(=O)[C@H](CCCNC(=N)N)NC(=O)[C@H](CCCCN)NC(=O)[C@H](CC(C)C)NC(=O)[C@H](CCSC)NC(=O)CN)C(=O)N[C@@H](CCCCN)C(=O)N[C@H](C(=O)N[C@@H](CC(C)C)C(=O)N[C@@H](CC(C)C)C(N)=O)[C@@H](C)O (H-GMLKRIKTLL-NH2) | 200 µM | 400 µM |
| CC[C@H](C)[C@H](NC(=O)[C@H](CCCNC(=N)N)NC(=O)[C@H](CCO)NC(=O)[C@H](CC(C)C)NC(=O)[C@H](CC(C)C)NC(=O)CN)C(=O)N[C@@H](CCCCN)C(=O)N[C@H](C(=O)N[C@@H](CC(C)C)C(=O)N[C@@H](CC(C)C)C(N)=O)[C@@H](C)O (H-GLL[hSer]RIKTLL-NH2) | 150 µM | > 500 µM |
| CC[C@H](C)[C@H](NC(=O)[C@H](CCCNC(=N)N)NC(=O)[C@H](CCN)NC(=O)[C@H](CC(C)C)NC(=O)[C@H](CC(C)C)NC(=O)CN)C(=O)N[C@@H](CCCCN)C(=O)N[C@@H](CCN)C(=O)N[C@@H](CC(C)C)C(=O)N[C@@H](CC(C)C)C(N)=O (H-GLL[Dab]RIK[Dab]LL-NH2) | > 200 µM | > 500 µM |
| CC[C@H](C)[C@H](NC(=O)[C@H](CCCNC(=N)N)NC(=O)[C@H](CN)NC(=O)[C@H](CC(C)C)NC(=O)[C@H](CC(C)C)NC(=O)CN)C(=O)N[C@@H](CCCCN)C(=O)N[C@H](C(=O)N[C@@H](CC(C)C)C(=O)N[C@@H](CC(C)C)C(N)=O)[C@@H](C)O (H-GLL[Dap]RIKTLL-NH2) | 100 µM | > 500 µM |
| CC[C@H](C)[C@H](NC(=O)[C@H](CCCNC(=N)N)NC(=O)[C@H](CCCCN)NC(=O)[C@H](CCSC)NC(=O)[C@H](CC(C)C)NC(=O)CN)C(=O)N[C@@H](CCCCN)C(=O)N[C@H](C(=O)N[C@@H](CCSC)C(=O)N[C@@H](CC(C)C)C(N)=O)[C@@H](C)O (H-GLMKRIKTML-NH2) | > 200 µM | > 500 µM |
| CCC[C@H](NC(=O)[C@H](CC(C)C)NC(=O)[C@@H](NC(=O)[C@H](CCCCN)NC(=O)[C@@H](NC(=O)[C@H](CCCNC(=N)N)NC(=O)[C@H](CCCCN)NC(=O)[C@H](CC(C)C)NC(=O)[C@H](CCC)NC(=O)CN)[C@@H](C)CC)[C@@H](C)O)C(N)=O (H-G[Nva]LKRIKTL[Nva]-NH2) | > 200 µM | > 500 µM |
| CC(C)C[C@H](NC(=O)[C@H](C)NC(=O)CN)C(=O)N[C@@H](CCCCN)C(=O)N[C@@H](CCCNC(=N)N)C(=O)N[C@@H](Cc1ccc2ccccc2c1)C(=O)N[C@@H](CCCCN)C(=O)N[C@H](C(=O)N[C@@H](CC(C)C)C(=O)N[C@@H](C)C(N)=O)[C@@H](C)O (H-GALKR[2Nal]KTLA-NH2) | > 200 µM | > 500 µM |
| CC[C@H](C)[C@H](NC(=O)[C@H](CCCNC(=N)N)NC(=O)[C@H](CO)NC(=O)[C@H](CC(C)C)NC(=O)[C@H](CC(C)C)NC(=O)CN)C(=O)N[C@@H](CCCCN)C(=O)N[C@H](C(=O)N[C@@H](CC(C)C)C(=O)N[C@@H](CC(C)C)C(N)=O)[C@@H](C)O (H-GLLSRIKTLL-NH2) | 100 µM | > 500 µM |
| CC[C@H](C)[C@H](NC(=O)[C@H](CCCNC(=N)N)NC(=O)[C@H](CCCCN)NC(=O)[C@H](CC(C)C)NC(=O)[C@@H](NC(=O)CN)C(C)C)C(=O)N[C@@H](CCCCN)C(=O)N[C@H](C(=O)N[C@@H](CC(C)C)C(=O)N[C@H](C(N)=O)C(C)C)[C@@H](C)O (H-GVLKRIKTLV-NH2) | > 200 µM | > 500 µM |
| CC[C@H](C)[C@H](NC(=O)[C@H](CCCNC(=N)N)NC(=O)[C@H](CCCCN)NC(=O)[C@H](CC(C)C)NC(=O)[C@H](COC)NC(=O)CN)C(=O)N[C@@H](CCCCN)C(=O)N[C@H](C(=O)N[C@@H](CC(C)C)C(=O)N[C@@H](COC)C(N)=O)[C@@H](C)O (H-GS(Me)LKRIKTLS(Me)-NH2) | > 200 µM | > 500 µM |
| CC[C@H](C)[C@H](NC(=O)[C@H](CCCNC(=N)N)NC(=O)[C@@H](NC(=O)[C@H](CC(C)C)NC(=O)[C@H](CC(C)C)NC(=O)CN)[C@@H](C)O)C(=O)N[C@@H](CCCCN)C(=O)N[C@H](C(=O)N[C@@H](CC(C)C)C(=O)N[C@@H](CC(C)C)C(N)=O)[C@@H](C)O (H-GLLTRIKTLL-NH2) | 200 µM | > 500 µM |
| CCC[C@H](NC(=O)[C@H](CCC)NC(=O)[C@@H](NC(=O)[C@H](CCCCN)NC(=O)[C@@H](NC(=O)[C@H](CCCNC(=N)N)NC(=O)[C@H](CCCCN)NC(=O)[C@H](CCC)NC(=O)[C@H](CCC)NC(=O)CN)[C@@H](C)CC)[C@@H](C)O)C(N)=O (H-G[Nva][Nva]KRIKT[Nva][Nva]-NH2) | > 200 µM | > 500 µM |
| CCCCCC[C@H](NC(=O)[C@H](CCCCCC)NC(=O)[C@@H](NC(=O)[C@H](CCCCN)NC(=O)[C@@H](NC(=O)[C@H](CCCNC(=N)N)NC(=O)[C@H](CCCCN)NC(=O)[C@H](CCCCCC)NC(=O)[C@H](CCCCCC)NC(=O)CN)[C@@H](C)CC)[C@@H](C)O)C(N)=O (H-G[Aoc(2)][Aoc(2)]KRIKT[Aoc(2)][Aoc(2)]-NH2) | – | 20 µM |

More lines, in order of falling MIC (Escherichia coli), values ahead:

| MIC (Escherichia coli) | SMILES | HC10 (Erythrocyte) |
| --- | --- | --- |
| 100 µM | CCCC[C@H](NC(=O)[C@H](CCCC)NC(=O)[C@@H](NC(=O)[C@H](CCCCN)NC(=O)[C@@H](NC(=O)[C@H](CCCNC(=N)N)NC(=O)[C@H](CCCCN)NC(=O)[C@H](CCCC)NC(=O)[C@H](CCCC)NC(=O)CN)[C@@H](C)CC)[C@@H](C)O)C(N)=O (H-G[Nle][Nle]KRIKT[Nle][Nle]-NH2) | > 500 µM |
| 100 µM | CCC[C@H](NC(=O)[C@H](CC(C)C)NC(=O)[C@@H](NC(=O)[C@H](CCCCN)NC(=O)[C@H](Cc1ccc2ccccc2c1)NC(=O)[C@H](CCCNC(=N)N)NC(=O)[C@H](CCCCN)NC(=O)[C@H](CC(C)C)NC(=O)[C@H](CCC)NC(=O)CN)[C@@H](C)O)C(N)=O (H-G[Nva]LKR[2Nal]KTL[Nva]-NH2) | > 500 µM |
| 50 µM | CC[C@H](C)[C@H](NC(=O)[C@H](CCCNC(=N)N)NC(=O)[C@H](CCCCN)NC(=O)[C@H](CC(C)C)NC(=O)[C@H](C)NC(=O)CN)C(=O)N[C@@H](CCCCN)C(=O)N[C@H](C(=O)N[C@@H](CC(C)C)C(=O)N[C@@H](C)C(N)=O)[C@@H](C)O (H-GALKRIKTLA-NH2) | > 500 µM |
| 12.5 µM | CC[C@H](C)[C@H](NC(=O)[C@H](CCCNC(=N)N)NC(=O)[C@H](CCCCN)NC(=O)[C@H](CC(C)C)NC(=O)[C@H](CC1CCCCC1)NC(=O)CN)C(=O)N[C@@H](CCCCN)C(=O)N[C@H](C(=O)N[C@@H](CC1CCCCC1)C(=O)N[C@@H](CC(C)C)C(N)=O)[C@@H](C)O (H-G[Cha]LKRIKT[Cha]L-NH2) | 120 µM |
| 6.25 µM | CCCCCC[C@H](NC(=O)[C@H](CC(C)C)NC(=O)[C@@H](NC(=O)[C@H](CCCCN)NC(=O)[C@@H](NC(=O)[C@H](CCCNC(=N)N)NC(=O)[C@H](CCCCN)NC(=O)[C@H](CC(C)C)NC(=O)[C@H](CCCCCC)NC(=O)CN)[C@@H](C)CC)[C@@H](C)O)C(N)=O (H-G[Aoc(2)]LKRIKTL[Aoc(2)]-NH2) | 71 µM |
| 6.25 µM | CC[C@H](C)[C@H](NC(=O)[C@H](CCCNC(=N)N)NC(=O)[C@H](CCCCN)NC(=O)[C@H](Cc1ccc2ccccc2c1)NC(=O)CN)C(=O)N[C@@H](CCCCN)C(=O)N[C@H](C(=O)N[C@@H](CC(C)C)C(=O)N[C@@H](CC(C)C)C(N)=O)[C@@H](C)O (H-G[2Nal]KRIKTLL-NH2) | 300 µM |
